Data reported in patent US7582312B2, “Methods to produce lung surfactant formulations via lyophilization and formulations and uses thereof” (Discovery Laboratories, Inc., priority 2004, dated 2009).
Values after ≈ are worked out from the molar mass of the structure shown. Where no end group is shown, it is not given here.

Legend:
[1] = Individual component solubilities in t-butanol/water solutions (HPLC); settings: about 37° C.; for solubility at 30 min: 37 °C, thermodynamic from solid
[2] = Achievable dissolution concentrations of components in 60% TBA cosolvent without NaCl; settings: for Measured Concentration, 1: replicate 1; for Measured Concentration, 2: replicate 2; for Measured Concentration, 3: replicate 3; for Measured Concentration, AVG: room temperature, individual component
[3] = physchem; settings: 37 °C, aqueous with cosolvent or surfactant or cyclodextrin, thermodynamic from solid
[4] = 50% t-butanol in water, aqueous with cosolvent or surfactant or cyclodextrin
[5] = 80% t-butanol in water, organic solvent or mixture
[6] = 90% t-butanol in water, organic solvent or mixture
[7] = 95% t-butanol in water, organic solvent or mixture
[8] = 100% t-butanol, organic solvent or mixture

| solubility at 30 min [1, 4] | solubility at 30 min [1, 5] | solubility at 30 min [1, 6] | solubility at 30 min [1, 7] | solubility at 30 min [1, 8] | Measured Concentration, 1 [2] | Measured Concentration, 2 [2] | Measured Concentration, 3 [2] | Measured Concentration, AVG [2] | Solubility ([1]; 50% t-butanol in water) | Solubility ([1]; 80% t-butanol in water) | Solubility ([1]; 90% t-butanol in water) | Solubility ([1]; 95% t-butanol in water) | Solubility ([1]; 97.5% t-butanol in water) | Solubility ([1]; 99% t-butanol in water) | Solubility ([1]; 100% t-butanol) | Solubility [3] | Compound |
| --- | --- | --- | --- | --- | --- | --- | --- | --- | --- | --- | --- | --- | --- | --- | --- | --- | --- |
| 14 mg/mL (≈ 57.7 mM) | > 224 mg/mL | > 229 mg/mL | > 251 mg/mL | > 270 mg/mL | – | – | – | – | – | – | – | – | – | – | – | – | CCCCCCCCCCCCCCCCO [CA, cetyl alcohol] |
| > 49 mg/mL | > 133 mg/mL | > 145 mg/mL | > 150 mg/mL | > 150 mg/mL | 34.8 mg/mL | 35.0 mg/mL | 35.2 mg/mL | 35.0 mg/mL | – | – | – | – | – | – | – | – | CCCCCCCCCCCCCCCC(=O)OC[C@H](COP(=O)([O-])OCC[N+](C)(C)C)OC(=O)CCCCCCCCCCCCCCC [DPPC, dipalmitoyl phosphatidylcholine] |
| – | – | – | – | – | 298.4 mg/mL | 283.7 mg/mL | 290.6 mg/mL | 290.9 mg/mL | >47 mg/mL | >119 mg/mL | >160 mg/mL | 34 mg/mL (≈ 45.4 mM) | 20 mg/mL (≈ 26.7 mM) | <5 mg/mL | <5 mg/mL | – | CCCCCCCC/C=C\CCCCCCCC(=O)O[C@H](COC(=O)CCCCCCCCCCCCCCC)COP(=O)(O)OCC(O)CO (some centres unmarked) [POPG, palmitoyloleoyl phosphatidylglycerol] |
| – | – | – | – | – | – | – | – | – | – | – | – | – | – | – | – | > 67 mg/mL | KLLLLKLLLLKLLLLKLLLLK [KL4] |
